This is an account of results in US20260272964A1, “PENTAGALLOYL GLUCOSE DERIVED FROM SCHINUS PLANTS AND METHODS OF USE” (Emory University, priority 2020, published 2026).

Broadly, the MIC is the lowest concentration that inhibits growth of the organism.

This assay concerns A. baumannii AB5075. Put plainly: Resistance studies (agar plates and 21-day serial passaging). Type of assay: cell-based, Acinetobacter baumannii. The note with it: for MIC: Acinetobacter baumannii. As for the experimental part:
To test for spontaneous development of resistance to PGG, A. baumannii AB5075 was inoculated on agar plates containing PGG at 0.5×MIC, 1×MIC, and 2×MIC (128, 256, and 512 μg/mL, respectively), and a control plate containing no PGG. […] Next, evolution of resistance was tested by serial passaging A. baumannii AB5075 for 21 days in the presence of a PGG gradient, using culture from the 0.5×MIC treatment for each subsequent passage. Serial passaging with a tetracycline gradient served as a control.

In brackets after ≈: the same amount, converted by molar mass. Read-outs that look alike come from different tables or passages of the source.

Regarding `CN(C)[C@@H]1C(O)=C(C(N)=O)C(=O)[C@@]2(O)C(O)=C3C(=O)c4c(O)cccc4[C@@](C)(O)[C@H]3C[C@@H]12` [tetracycline, reference compound], the “fold increase in MIC” value (A. baumannii, after 10 passages) was found to be 16 fold. The MIC runs as follows: (AB5075, read-out: Base MIC) 4 µg/mL (≈ 9 µM); (AB5075, read-out: MIC after serial passaging) 64 µg/mL (≈ 144 µM).
